The text below walks through data of patent publication US12258358B1, “Ferrocene-substituted organometallic complexes” (THE REGENTS OF THE UNIVERSITY OF CALIFORNIA, priority 2023, dated 2025).

The nature of this data set: Cyclic voltammetry (CV) in MeCN electrolyte solution. It is filed as physicochemical. Particulars: for range over which the redox couples are observed (estimation of the Vcell): symmetric battery configuration assumed. The protocol:
Cyclic voltammetry (CV) measurements were used to determine the E1/2 values for 2-OTf and 3-OTf, and those measurements were performed in 0.1 Bu4NBF4 MeCN solution. Five redox couples, corresponding to 8 electron transfer (ET) events were observed over the potential range for 2-OTf and 3-OTf, respectively (FIGS. 3A and 3B). The electrochemistry of 2 is expected to be the same as 2-OTF, although 2-OTf has different solubility. The range of about 1.8 V over which the redox couples are observed provides an estimation of the Vcell for a battery which could be constructed using 2^+ as the analyte, if the battery is constructed with a symmetric configuration where 2 is the analyte for both the cathode and anode.
Cyclic voltammograms (CVs) were recorded in a nitrogen-filled glovebox with a CH Instruments Electrochemical Analyzer Model 620D or 1400 with a glassy carbon working electrode (CH Instruments, nominal surface area of 0.071 cm^2), a platinum wire auxiliary electrode, and an Ag/AgNO3 (0.001M) non-aqueous reference electrode with a Vycor tip. All potentials are referenced to the SCE couple, and ferrocene was used as an external standard where the E1/2 of ferrocene/ferrocenium is +0.40 V vs. SCE in 0.1 M Bu4NPF6 MeCN. Bu4NPF6 was recrystallized from ethanol and placed under vacuum for 72 hours before electrolyte solutions were made. Electrolyte solutions were stored over 3 Å molecular sieves for at least 48 hours before use. Sieves were activated by heating under vacuum at 270° C. for at least 72 hours. UV-Vis spectra were obtained using a 1 cm cuvette using an Agilent 8453 UV-vis spectrophotometer.

The mark [1] stands for this setting: 0.1 Bu4NBF4 MeCN solution, glassy carbon working electrode.

On to [(FcI2P^−)2Al)]OTf [Complex 2-OTf], for which the “range over which the redox couples are observed (estimation of the Vcell)” value is “about 1.8 V”. For the same substance, the “electron transfer (ET) events observed over the potential range (five redox couples)” value (0.1 Bu4NBF4 MeCN solution) was found to be 8.
On to “[(^EtOFcI2P^−)2Al)](OTf) [Complex 3-OTf]”, for which the “range over which the redox couples are observed (estimation of the Vcell)” value is 1.9 V. In addition, under “0.1 Bu4NBF4 MeCN solution”, the “electron transfer (ET) events observed over the potential range (five redox couples)” value is recorded as 8. Also, under setting [1], the “E1/2 of the 3^0/− couple” value is given as −1.02 V vs SCE, the “E1/2 of the 3^2+/+ couple” value is recorded as “+0.00 V vs SCE”, the “E1/2 of the 3^6+/2+ four-electron couple” value is “+0.60 V vs SCE” and the “E1/2 of the 3^+/0 couple” value is on record as −0.33 V vs SCE. Under setting [1], the “E1/2 of the 3^−/2− couple” value is −1.39 V vs SCE.
